Experimental data reported in patent publication US20090117653A1 (Governors of the University of Alberta, priority 2007, published 2009).

Assays:
Format in all cases: cell-based, human
[1] = system: rBM cells (MM BMC); CD138+/CD56+ population; experiment: Apoptosis within rBM by flow cytometry measuring AnnexinV reactivity
Protocol: (§1) For preclinical studies, the rBM was grown for 14 days to allow for stratification of the culture and expansion of the malignant cells and the stromal layer. A single treatment of either melphalan or bortezomib was administered in a fresh aliquot of Growth Medium overlaid on top of the 3-D culture. After 7 days of treatment, fresh medium was added and cells were allowed to recover for an additional period of 7 days, after which cells were isolated using the Cell Recovery Solution and the effects of treatment were analyzed, and for CFU activity of drug resistant LRC.
For flow cytometry, cells were isolated from 3-D cultures with Cell Recovery Solution, stained with various FITC tagged CD antigens or Annexin V-PE and analyzed by flow cytometry to measure the extent of proliferation and apoptosis using a FACSort flow cytometer (BD, Oakville, ON). Data was analyzed with CellQuest Pro software.
FIGS. 4a-d illustrate a comparative evaluation of two MM therapeutics in a 3-D BM cell culture assembly in accordance with various embodiments. […]
FIG. 4b illustrates apoptosis within rBM as assessed by flow cytometry measuring AnnexinV reactivity post treatment with melphalan (left panel) or bortezomib (middle panel). MM specific cell killing by bortezomib was monitored in the CD138+/CD56+ population by AnnexinV reactivity (right panel).

[2] = system: clonotypic MM cells in rBM (MM BMC); experiment: Reduction of clonal cells in 3-D rBM culture, RQ-PCR with patient specific primers; details: rBM grown 14 days, single treatment 7 days, 7 days recovery
Protocol: as §1
For real-time quantitative PCR (RQ-PCR), total genomic DNA was isolated with TRIzol™ reagent (Invitrogen, Burlington, ON) per manufacturer's instructions. […] Controls included cloned VDJ sequences for each patient used to generate a standard curve for the specific clonotypic sequence and comparison with a standard curve for a housekeeping gene, β2 microglobulin (normalized to the two copies of B2M templates/cell), to quantify the number of templates in unknown samples before and after 3-D culture. […]
FIG. 4a illustrates the reduction of the clonal cells as measured by RQ-PCR with patient specific primers (melphalan p=0.016, bortezomib p=0.39). […] Treatment of rBM with melphalan led to a 60% decrease in the number of clonotypic cells as measured by RQ-PCR.

[3] = system: LRCs (putative MM-CSC); experiment: Persistence of label retaining cells (LRC) in melphalan treated 3-D cultures of mobilized blood cells, CFSE flow cytometry; details: mobilized blood mononuclear cells, 14 days in 3-D, then treated
Protocol: In the embodiments illustrated in FIGS. 1-7, 3-D cell culture and other techniques were performed. BMC were isolated from BM aspirates by Ficoll-Paque gradient centrifugation per manufacturer's instructions. Surface coating (rEnd) was created by incubating tissue culture plates with fibronectin/collagen I (1:1) in PBS at a final concentration of 5 μg/1 cm^2 of each protein. Plates were incubated for <30 min at room temperature (RT) and the remaining fluid was removed and was replaced with the rBM layer consisting of the BMC cells in an ECM mixture of Matrigel™/fibronectin (2:1 v/v). For analysis of proliferation and LRCs, cells were labeled with 0.25 μM CFSE for 15 min at 40° C. […]
For CFU assays, CFSE labeled cells were isolated from the 3-D culture and the CFSE+ cells were sorted on an EPICS ALTRA cell sorter, by gating on the live cells based on the forward and side scatter and on the CFSE+ population based on fluorescence intensity in the FL1 channel (see FIG. 6a, below). […] The MethoCult™ cultures were incubated for 14 days and the resulting colonies were counted. […]
FIG. 6a illustrates the flow cytometry profile of the LRCs. The gate for sorting was set to isolate CFSE-high cells and the percentage of LRCs was calculated as the percent of CFSE-high cells in the live cell fraction of the 3-D culture.

[4] = system: stromal compartment of rBM; details: brightfield microscopy; TRAP, Oil Red, ALP staining at rEnd; FIG. 4c, 4d
Protocol: as §1
For microscopy, confocal z-slices were imaged on a Carl Zeiss confocal LSM 510 microscope equipped with appropriate filters and the 3D reconstruction was done using Zeiss 510 image analysis software. Quantification of LRC positioning was performed with Imaris 3.2.2 software, Bitplane AG (Zurich, Switzerland). Stromal cells were stained with TRAP, Oil Red, Alkaline phosphatase, or Alizarin Red according to the manufacturer's instructions and imaged on Zeiss Axioskop digital microscope. For fibronectin, phalloidin and N-cadherin staining, cells were fixed with 1% neutral buffered formalin for 10 min at RT, permeabilized with 0.5% Triton X-100 and non-specific binding was blocked with 1% BSA for 1 hr at RT. […]

SMILES | apoptosis in CD138+CD56+ PC population (AnnexinV reactivity) ([1]; CD138+/CD56+ population, FIG. 4b right panel) | reduction in clonotypic cells (in words) ([2]; FIG. 4a, p=0.39) | depletion in 3-D of other hematopoietic cells [3] | enrichment of LRCs in treated 3-D cultures ([3]; CFSE labeled, FIG. 6a) | effect on stromal compartment of rBM [4] | apoptosis in rBM (AnnexinV reactivity) ([1]; overall rBM, post treatment, FIG. 4b, 4c) | decrease in the number of clonotypic cells as measured by RQ-PCR ([2]; p=0.016)
CC(C)C[C@H](NC(=O)[C@H](Cc1ccccc1)NC(=O)c1cnccn1)B(O)O [bortezomib] | the only cell population subject to bortezomib induced apoptosis | neither a significant reduction in clonotypic cells | – | – | – | – | –
N[C@@H](Cc1ccc(N(CCCl)CCCl)cc1)C(=O)O [melphalan] | – | – | ≥ 50% | 50% | remained intact | induced apoptosis of all cell types within the hematopoietic hierarchy | 60%
